Assay results taken from US20250144067A1, “PERSONALIZED STARVATION THERAPY FOR CANCER” (Faeth Therapeutics, Inc., priority 2021, published 2025).
Structures can show the parent of a compound that is named as a salt. Where two headings read alike, the source gives them in different places.

Assays:
[1] = system: NCI-H292 lung cancer cells; experiment: FDA drug screening, complete media vs cholesterol-free media with simvastatin (TABLE 2); assay type: cell-based, human
[2] = system: NCI-H292 lung cancer cells; experiment: FDA drug screening, complete media vs cholesterol-free media without statin (TABLE 1); assay type: cell-based, human
[3] = NCI-H292 cells, cholesterol-free media with simvastatin 0.04 μM, cell growth value in FDA drug screen
[4] = NCI-H292 cells, complete media, cell growth value in FDA drug screen
[5] = complete media minus cholesterol-free media + simvastatin, >0 enhanced anti-cancer activity, about 0 neutral, <0 antagonist
[6] = Complete minus Cholesterol-free, >0 enhanced anti-cancer activity, about 0 neutral, <0 antagonist
[7] = NCI-H292 cells, cholesterol-free media without statin
[8] = NCI-H292 cells, cholesterol-free media with simvastatin 0.04 μM, […]
[9] = NCI-H292 cells, complete media, […]
[10] = complete media minus cholesterol-free media + simvastatin, […]
[11] = Complete minus Cholesterol-free, […]
[12] = NCI-H292 cells, FDA drug library screen, cholesterol-free media without statin
[13] = NCI-H292 cells, FDA drug library screen, complete media
[14] = NCI-H292 cells, FDA library drug in cholesterol-free media with simvastatin 0.04 μM
[15] = NCI-H292 cells, FDA library drug in complete media
[16] = complete media vs cholesterol-free media + simvastatin (0.04 μM), >0 enhanced anti-cancer activity, about 0 neutral, <0 antagonist
[17] = NCI-H292 cells, cholesterol-free media without statin, FDA drug library screen
[18] = NCI-H292 cells, complete media, FDA drug library screen
[19] = NCI-H292 cells, drug in cholesterol-free media with simvastatin 0.04 μM
[20] = NCI-H292 cells, drug in complete media
[21] = Complete minus Cholesterol-free, greater than 0 enhanced anti-cancer activity, about 0 neutral, below 0 antagonist
[22] = NCI-H292 cells, FDA drug library screen, cholesterol-free media with simvastatin 0.04 μM
[23] = complete media vs cholesterol-free media + simvastatin (0.04 μM), […]
[24] = complete vs cholesterol-free media, […]
[25] = complete vs cholesterol-free media, >0 enhanced anti-cancer activity, about 0 neutral, <0 antagonist
[26] = NCI-H292 cells, cholesterol-free media with simvastatin 0.04 μM, FDA drug library screen (TABLE 2)
[27] = NCI-H292 cells, complete media, FDA drug library screen (TABLE 2)
[28] = complete media minus cholesterol-free media + simvastatin (0.04 μM), >0 enhanced anti-cancer activity, about 0 neutral, <0 antagonist
[29] = complete vs cholesterol-free media, greater than 0 enhanced anti-cancer activity, about 0 neutral, below 0 antagonists
[30] = Complete minus Cholesterol-free, greater than 0 enhanced anti-cancer activity, about 0 neutral, below 0 antagonists
[31] = NCI-H292 cells in cholesterol-free media without statin
[32] = NCI-H292 cells in complete media

Molecule: O=c1c(-c2ccc(O)cc2)coc2c([C@@H]3O[C@H](CO)[C@@H](O)[C@H](O)[C@H]3O)c(O)ccc12 [Puerarin]
- Cholesterol-free media + simvastatin (0.04 μM) [1, 3]: 0.9456
- Complete Media [1, 4]: 1.081
- Difference [1, 5]: 0.14
- Difference [2, 6]: −0.27
- Cholesterol-free [2, 7]: 1.203
- Complete ([2]; NCI-H292 cells, complete media): 0.9306

Molecule: COc1ccccc1OC(=O)c1ccccc1OC(C)=O [Guacetisal]
- Cholesterol-free media + simvastatin (0.04 μM) [1, 8]: 1.34
- Complete Media [1, 9]: 1.4
- Difference [1, 10]: 0.06
- Difference [2, 11]: −0.09
- Cholesterol-free [2, 12]: 0.837
- Complete [2, 13]: 0.7434

Molecule: CNCCCN1c2ccccc2CCc2ccccc21 [Desipramine hydrochloride]
- Cholesterol-free media + simvastatin (0.04 μM) [1, 14]: 2.126
- Complete Media [1, 15]: 1.494
- Difference [1, 16]: −0.63
- Difference [2, 6]: −0.04
- Cholesterol-free [2, 17]: 1.05
- Complete [2, 18]: 1.006

Molecule: Clopidogrel (hydrogen sulfate)
- Cholesterol-free media + simvastatin (0.04 μM) [1, 19]: 1.048
- Complete Media [1, 20]: 0.8246
- Difference [1, 16]: −0.22
- Difference [2, 21]: −0.10
- Cholesterol-free [2, 12]: 1.157
- Complete [2, 13]: 1.053

Molecule: Kanamycin (sulfate)
- Cholesterol-free media + simvastatin (0.04 μM) [1, 22]: 1.825
- Complete Media [1, 13]: 1.703
- Difference [1, 23]: −0.12
- Cholesterol-free [2, 7]: 1.851
- Complete ([2]; NCI-H292 cells, complete media): 1.486
- Difference [2, 24]: −0.36

Molecule: CC(C)Cn1cnc2c(N)nc3ccccc3c21 [Imiquimod]
- Cholesterol-free media + simvastatin (0.04 μM) [1]: 1.141
- Complete Media [1]: 0.8713
- Difference [1]: −0.27
- Cholesterol-free [2]: 0.6962
- Complete [2]: 1.326
- Difference [2]: 0.63

Molecule: CC[C@H](C)C(=O)N1CCC(NC(=O)Nc2ccc(OC(F)(F)F)c(F)c2)CC1 [EC5026]
- Cholesterol-free media + simvastatin (0.04 μM) [1, 22]: 1.241
- Complete Media [1, 13]: 1.143
- Difference [1, 23]: −0.10
- Cholesterol-free [2, 7]: 1.148
- Complete ([2]; NCI-H292 cells, complete media): 0.7425
- Difference [2, 24]: −0.41

Molecule: CC(=C(CCOC(=O)C(C)C)SSC(CCOC(=O)C(C)C)=C(C)N(C=O)Cc1cnc(C)nc1N)N(C=O)Cc1cnc(C)nc1N (stereo in doubt) [Sulbutiamine]
- Cholesterol-free media + simvastatin (0.04 μM) [1, 3]: 0.8359
- Complete Media [1, 4]: 0.9183
- Difference [1, 5]: 0.08
- Cholesterol-free [2, 17]: 1.257
- Complete [2, 18]: 1.438
- Difference [2, 25]: 0.18

Molecule: COc1ccc2c3c1O[C@H]1C[C@@H](O)C=C[C@@]31CCN(C)C2 [Galanthamine (hydrobromide)]
- Cholesterol-free media + simvastatin (0.04 μM) [1, 8]: 1.411
- Complete Media [1, 9]: 1.432
- Difference [1, 10]: 0.02
- Difference [2, 11]: −0.25
- Cholesterol-free [2, 7]: 1.284
- Complete ([2]; NCI-H292 cells, complete media): 1.033

Molecule: Cc1ccc(NC(=O)c2ccc(CN3CCN(C)CC3)cc2)cc1Nc1nccc(-c2cccnc2)n1 [Imatinib]
- Cholesterol-free media + simvastatin (0.04 μM) [1, 26]: 1.214
- Complete Media [1, 27]: 1.199
- Difference [1, 28]: −0.01
- Cholesterol-free [2, 7]: 1.28
- Complete ([2]; NCI-H292 cells, complete media): 0.9175
- Difference [2, 29]: −0.36

Molecule: CC[C@H](Nc1ncnc2[nH]cnc12)c1nc2cccc(F)c2c(=O)n1-c1ccccc1 [Idelalisib]
- Cholesterol-free media + simvastatin (0.04 μM) [1, 14]: 1.507
- Complete Media [1, 15]: 1.219
- Difference [1, 16]: −0.29
- Difference [2, 21]: −0.13
- Cholesterol-free [2, 12]: 1.096
- Complete [2, 13]: 0.9672

Molecule: Cc1ncc([N+](=O)[O-])n1CC(O)CN1CCOCC1 (centres unmarked) [Morinidazole]
- Cholesterol-free media + simvastatin (0.04 μM) [1, 22]: 1.535
- Complete Media [1, 13]: 1.676
- Difference [1, 5]: 0.14
- Cholesterol-free [2, 7]: 1.15
- Complete ([2]; NCI-H292 cells, complete media): 0.8164
- Difference [2, 29]: −0.33

Molecule: CC1=C(/C=C/C(C)=C/C=C/C(C)=C/C(=O)O)C(C)(C)CCC1 [Retinoic acid]
- Cholesterol-free media + simvastatin (0.04 μM) [1, 22]: 0.9194
- Complete Media [1, 13]: 1.253
- Difference [1, 5]: 0.33
- Difference [2, 30]: −0.66
- Cholesterol-free [2, 31]: 1.248
- Complete [2, 32]: 0.5841

Molecule: CO[C@H]1O[C@@H]2O[C@@]3(C)CC[C@H]4[C@H](C)CC[C@@H]([C@H]1C)[C@@]24OO3 [Artemether]
- Cholesterol-free media + simvastatin (0.04 μM) [1, 22]: 0.6524
- Complete Media [1, 13]: 0.841
- Difference [1, 5]: 0.19
- Difference [2, 6]: −0.26
- Cholesterol-free [2, 7]: 1.059
- Complete ([2]; NCI-H292 cells, complete media): 0.7961

Molecule: CSc1nc2cc(Cl)c(Oc3cccc(Cl)c3Cl)cc2[nH]1 [Triclabendazole]
- Complete Media [1, 13]: 1.193
- Difference [1, 5]: 0.25
- Difference [2, 30]: −0.64
- Cholesterol-free [2, 31]: 1.673
- Complete [2, 32]: 1.028

Molecule: CCC(CC)O[C@@H]1C=C(C(=O)O)C[C@H](N)[C@H]1NC(C)=O [Oseltamivir acid]
- Cholesterol-free media + simvastatin (0.04 μM) [1, 3]: 0.944
- Complete Media [1, 4]: 1.053
- Difference [1, 5]: 0.11
- Cholesterol-free [2, 7]: 1.419
- Complete ([2]; NCI-H292 cells, complete media): 0.9754
- Difference [2, 29]: −0.44

Molecule: C=C[C@H]1C[N@@]2CC[C@H]1C[C@H]2[C@H](O)c1ccnc2ccc(OC)cc12 [Quinine]
- Difference [1, 16]: −0.10
- Cholesterol-free [2, 7]: 1.498
- Difference [2, 29]: −0.37

Molecule: Ribociclib succinate
- Cholesterol-free media + simvastatin (0.04 μM) [1, 26]: 0.606
- Complete Media [1, 27]: 0.6094
- Difference [1, 28]: 0.00
- Difference [2, 6]: −0.23
- Cholesterol-free [2, 7]: 0.9857
- Complete ([2]; NCI-H292 cells, complete media): 0.7555

Molecule: CNC[C@H](O)[C@@H](O)[C@H](O)[C@H](O)CO.Nc1nc(-n2cc(C(=O)O)c(=O)c3cc(F)c(N4CC(O)C4)c(Cl)c32)c(F)cc1F [Delafloxacin (meglumine)]
- Cholesterol-free media + simvastatin (0.04 μM) [1, 19]: 1.156
- Complete Media [1, 20]: 0.9953
- Difference [1, 16]: −0.16
- Cholesterol-free [2, 7]: 1.432
- Complete ([2]; NCI-H292 cells, complete media): 1.009
- Difference [2, 29]: −0.42

Molecule: CC1=C(C(=O)O)N2C(=O)[C@@H](NC(=O)[C@H](N)C3=CCC=CC3)[C@H]2SC1 [Cephradine]
- Cholesterol-free media + simvastatin (0.04 μM) [1, 14]: 1.213
- Complete Media [1, 15]: 0.8523
- Difference [1, 16]: −0.36
- Cholesterol-free [2, 17]: 0.9298
- Complete [2, 18]: 1.756
- Difference [2, 25]: 0.83

Molecule: C[C@H](CCC(=O)O)[C@H]1CC[C@H]2[C@@H]3CC[C@@H]4C[C@H](O)CC[C@]4(C)[C@H]3C[C@H](O)[C@]12C [Deoxycholic acid]
- Cholesterol-free media + simvastatin (0.04 μM) [1, 14]: 1.379
- Complete Media [1, 15]: 0.931
- Difference [1, 16]: −0.45
- Difference [2, 30]: −0.65
- Cholesterol-free [2, 31]: 1.683
- Complete [2, 32]: 1.028

Molecule: O=C(O)c1cc(=O)c2c(OCC(O)COc3cccc4oc(C(=O)O)cc(=O)c34)cccc2o1 [Cromolyn (sodium)]
- Cholesterol-free media + simvastatin (0.04 μM) [1, 3]: 0.821
- Complete Media [1, 4]: 0.9131
- Difference [1, 5]: 0.09
- Difference [2, 30]: −0.63
- Cholesterol-free [2, 31]: 1.66
- Complete [2, 32]: 1.032

Molecule: C=C1C[C@H]2[C@@H]3CCC4=CC(=O)CC[C@@H]4[C@H]3CC[C@]2(C)[C@@]1(OC(C)=O)C(C)=O [Nestoron]
- Cholesterol-free media + simvastatin (0.04 μM) [1, 26]: 0.9628
- Complete Media [1, 27]: 0.9132
- Difference ([1]; complete media minus cholesterol-free media + simvastatin (0.04 μM), […]): −0.05
- Cholesterol-free [2, 7]: 1.481
- Complete ([2]; NCI-H292 cells, complete media): 1.095
- Difference [2, 24]: −0.39

Molecule: COCCCN1CCC(NC(=O)c2cc(Cl)c(N)c3c2OCC3)CC1 [Prucalopride]
- Cholesterol-free media + simvastatin (0.04 μM) [1, 3]: 0.8751
- Complete Media [1, 4]: 0.9854
- Difference [1, 5]: 0.11
- Difference [2, 30]: −0.49
- Cholesterol-free [2, 31]: 1.522
- Complete [2, 32]: 1.033

Molecule: COc1ccnc(C[S+]([O-])c2nc3ccc(OC(F)F)cc3[nH]2)c1OC (centres unmarked) [Pantoprazole (sodium hydrate)]
- Cholesterol-free media + simvastatin (0.04 μM) [1, 22]: 1.494
- Complete Media [1, 13]: 1.718
- Difference [1, 5]: 0.22
- Cholesterol-free [2, 7]: 1.314
- Complete ([2]; NCI-H292 cells, complete media): 0.9437
- Difference [2, 29]: −0.37

Molecule: CS(=O)(=O)CCNCc1ccc(-c2ccc3ncnc(Nc4ccc(OCc5cccc(F)c5)c(Cl)c4)c3c2)o1 [Lapatinib]
- Cholesterol-free media + simvastatin (0.04 μM) [1, 3]: 0.4073
- Complete Media [1, 4]: 0.4535
- Difference [1, 5]: 0.05
- Difference [2, 6]: −0.07
- Cholesterol-free [2, 17]: 0.3435
- Complete [2, 18]: 0.2753

Molecule: Cc1nc(C(=O)NCC(=O)O)c(O)c2ccc(Oc3ccccc3)cc12 [Roxadustat]
- Cholesterol-free media + simvastatin (0.04 μM) [1, 3]: 1.201
- Complete Media [1, 4]: 1.327
- Difference [1, 5]: 0.13
- Difference [2, 21]: −0.11
- Cholesterol-free [2, 12]: 1.074
- Complete [2, 13]: 0.9662

Molecule: O=c1[nH]c2ccccc2n1CCCN1CCC(n2c(=O)[nH]c3cc(Cl)ccc32)CC1 [Domperidone]
- Cholesterol-free media + simvastatin (0.04 μM) [1, 3]: 0.9833
- Complete Media [1, 4]: 1.061
- Difference [1, 5]: 0.08
- Difference [2, 21]: −0.14
- Cholesterol-free [2, 12]: 1.085
- Complete [2, 13]: 0.9412
